Where a name gives a salt, the structure may show the parent alone. Read-outs that look alike come from different tables or passages of the source.
What was measured:
Assay type in all cases: biochemical
[1] = molecular target: T1, human JAK1 (a.a. 837-1142) (Homo sapiens, UniProt P23458); assay: In vitro JAK kinase assay (HTRF, phosphorylation of a biotinylated peptide), JAK1; details: Table B1; read-out: JAK1 IC50
T1 construct: human JAK1 (a.a. 837-1142); His tag (N); made in house; host or cells: insect cells (baculovirus)
T1 sequence (P23458 849-1154): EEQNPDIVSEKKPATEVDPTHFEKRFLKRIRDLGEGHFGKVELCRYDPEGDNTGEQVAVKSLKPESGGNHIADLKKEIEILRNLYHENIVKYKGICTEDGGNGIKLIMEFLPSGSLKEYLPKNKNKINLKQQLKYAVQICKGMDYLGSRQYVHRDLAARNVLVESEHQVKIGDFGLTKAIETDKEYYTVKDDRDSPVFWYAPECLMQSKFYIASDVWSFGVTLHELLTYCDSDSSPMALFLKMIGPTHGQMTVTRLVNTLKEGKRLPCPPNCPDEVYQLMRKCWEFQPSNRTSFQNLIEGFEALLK
Outline: (§1)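 Phosphorylation of a biotinylated peptide by the JAK kinase domain, detected by HTRF with Eu-Py20 and SA-APC. ATP was 90 μM for JAK1, 30 μM for JAK2 and 3 μM for JAK3. Reactions ran 1 h at room temperature and were stopped with EDTA, followed by 40 min antibody binding.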

[2] = molecular target: T2, human JAK2 (a.a. 828-1132) (Homo sapiens, UniProt O60674); assay: In vitro JAK kinase assay (HTRF, phosphorylation of a biotinylated peptide), JAK2
T2 construct: JAK2 (a.a. 828-1132); His tag (N); made in house; host or cells: insect cells (baculovirus)
T2 sequence (O60674 828-1132): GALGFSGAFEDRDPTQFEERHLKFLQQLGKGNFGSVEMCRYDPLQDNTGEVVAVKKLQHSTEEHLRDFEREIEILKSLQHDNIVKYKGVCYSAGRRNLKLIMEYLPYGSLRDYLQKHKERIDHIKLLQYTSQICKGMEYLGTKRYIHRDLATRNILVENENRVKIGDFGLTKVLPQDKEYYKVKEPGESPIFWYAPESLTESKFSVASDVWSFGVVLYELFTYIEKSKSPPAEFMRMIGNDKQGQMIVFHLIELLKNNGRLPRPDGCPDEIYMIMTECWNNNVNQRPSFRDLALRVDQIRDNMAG
Outline: as §1

[3] = molecular target: TYK2 (Homo sapiens, UniProt P29597); assay: TYK2 kinase inhibition (Table A1); details: Table B1
Sequence of TYK2 (P29597 whole entry): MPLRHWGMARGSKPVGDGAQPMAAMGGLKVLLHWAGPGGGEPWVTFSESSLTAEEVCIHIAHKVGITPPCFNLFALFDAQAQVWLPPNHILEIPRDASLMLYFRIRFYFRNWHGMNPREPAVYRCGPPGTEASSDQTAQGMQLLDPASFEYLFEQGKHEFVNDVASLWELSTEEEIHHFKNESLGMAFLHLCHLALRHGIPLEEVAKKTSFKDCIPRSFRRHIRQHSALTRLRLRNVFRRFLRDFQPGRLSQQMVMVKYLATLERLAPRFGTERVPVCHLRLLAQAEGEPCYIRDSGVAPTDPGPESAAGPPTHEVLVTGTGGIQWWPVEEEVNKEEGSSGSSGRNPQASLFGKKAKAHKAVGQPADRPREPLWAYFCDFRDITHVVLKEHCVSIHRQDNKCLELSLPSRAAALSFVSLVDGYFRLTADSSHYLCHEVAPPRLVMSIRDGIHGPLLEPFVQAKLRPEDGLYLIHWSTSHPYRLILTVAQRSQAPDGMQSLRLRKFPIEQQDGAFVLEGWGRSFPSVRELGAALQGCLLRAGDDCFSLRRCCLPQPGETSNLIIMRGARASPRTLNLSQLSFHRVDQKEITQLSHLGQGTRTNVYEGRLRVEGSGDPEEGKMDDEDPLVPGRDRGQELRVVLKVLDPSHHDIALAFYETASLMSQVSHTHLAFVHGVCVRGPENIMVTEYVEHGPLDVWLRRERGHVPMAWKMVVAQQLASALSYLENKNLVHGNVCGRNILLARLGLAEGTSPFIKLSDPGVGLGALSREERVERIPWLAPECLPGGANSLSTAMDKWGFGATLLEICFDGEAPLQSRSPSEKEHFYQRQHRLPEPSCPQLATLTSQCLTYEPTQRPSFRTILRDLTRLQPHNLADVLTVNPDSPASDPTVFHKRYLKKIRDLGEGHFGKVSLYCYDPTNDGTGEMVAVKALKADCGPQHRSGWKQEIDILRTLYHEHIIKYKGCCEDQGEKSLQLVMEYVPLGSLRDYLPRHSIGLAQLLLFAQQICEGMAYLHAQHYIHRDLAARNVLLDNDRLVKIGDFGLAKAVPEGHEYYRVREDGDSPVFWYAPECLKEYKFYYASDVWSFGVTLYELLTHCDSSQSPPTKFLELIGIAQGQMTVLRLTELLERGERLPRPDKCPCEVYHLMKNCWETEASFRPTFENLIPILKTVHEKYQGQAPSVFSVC

[4] = molecular target: T3, Recombinant Human Anaplastic Lymphoma Kinase (Homo sapiens, UniProt Q9UM73); assay: ALK HTRF kinase assay; details: for ALK % of inhibition at a concentration of 500 nM or 1 mM: compound at a concentration of 500 nM or 1 mM (not specified), cells shown as percentage
T3 construct: purchased Invitrogen, Carlsbad, Calif
T3 sequence (Q9UM73 19-1620): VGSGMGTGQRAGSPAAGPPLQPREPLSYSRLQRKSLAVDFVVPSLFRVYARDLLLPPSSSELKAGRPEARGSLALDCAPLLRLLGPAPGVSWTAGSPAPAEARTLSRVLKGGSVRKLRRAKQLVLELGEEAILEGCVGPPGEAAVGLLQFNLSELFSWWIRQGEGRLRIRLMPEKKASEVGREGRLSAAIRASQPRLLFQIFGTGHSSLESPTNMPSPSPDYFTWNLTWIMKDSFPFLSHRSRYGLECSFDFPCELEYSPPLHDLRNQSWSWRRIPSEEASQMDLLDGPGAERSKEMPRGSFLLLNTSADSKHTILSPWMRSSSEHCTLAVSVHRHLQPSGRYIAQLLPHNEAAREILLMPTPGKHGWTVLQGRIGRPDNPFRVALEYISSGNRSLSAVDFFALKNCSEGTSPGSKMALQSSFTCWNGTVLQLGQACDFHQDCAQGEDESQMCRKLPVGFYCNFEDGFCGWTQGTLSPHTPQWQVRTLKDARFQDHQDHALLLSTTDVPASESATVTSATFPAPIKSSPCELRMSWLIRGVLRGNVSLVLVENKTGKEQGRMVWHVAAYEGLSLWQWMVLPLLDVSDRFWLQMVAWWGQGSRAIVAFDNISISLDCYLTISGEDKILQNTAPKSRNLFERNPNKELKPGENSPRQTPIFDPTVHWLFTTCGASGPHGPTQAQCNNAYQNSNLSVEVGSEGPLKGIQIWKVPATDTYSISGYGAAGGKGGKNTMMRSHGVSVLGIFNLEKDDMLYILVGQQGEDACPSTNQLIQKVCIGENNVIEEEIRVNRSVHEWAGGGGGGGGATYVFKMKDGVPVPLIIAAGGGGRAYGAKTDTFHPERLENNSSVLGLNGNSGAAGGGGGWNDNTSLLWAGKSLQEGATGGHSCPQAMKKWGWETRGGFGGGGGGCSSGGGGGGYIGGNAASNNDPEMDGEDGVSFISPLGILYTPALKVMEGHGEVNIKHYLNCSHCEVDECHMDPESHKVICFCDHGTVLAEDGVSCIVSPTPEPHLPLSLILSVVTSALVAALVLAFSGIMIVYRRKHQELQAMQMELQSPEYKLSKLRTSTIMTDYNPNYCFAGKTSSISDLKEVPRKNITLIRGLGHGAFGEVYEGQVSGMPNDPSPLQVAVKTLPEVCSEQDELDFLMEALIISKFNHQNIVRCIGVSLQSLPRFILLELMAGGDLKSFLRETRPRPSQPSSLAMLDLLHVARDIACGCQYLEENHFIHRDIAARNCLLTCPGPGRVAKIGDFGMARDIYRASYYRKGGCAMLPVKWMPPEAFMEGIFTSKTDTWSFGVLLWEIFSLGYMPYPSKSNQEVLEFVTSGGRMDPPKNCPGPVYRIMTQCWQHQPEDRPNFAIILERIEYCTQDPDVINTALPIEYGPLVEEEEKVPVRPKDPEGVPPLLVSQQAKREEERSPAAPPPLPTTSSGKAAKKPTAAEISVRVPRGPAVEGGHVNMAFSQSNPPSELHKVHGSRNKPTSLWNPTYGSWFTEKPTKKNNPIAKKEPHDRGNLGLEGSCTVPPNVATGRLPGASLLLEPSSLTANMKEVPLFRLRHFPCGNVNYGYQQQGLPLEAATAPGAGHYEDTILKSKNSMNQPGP
Source text: Materials: Recombinant Human Anaplastic Lymphoma Kinase was purchased from Invitrogen, Carlsbad, Calif. Peptide substrate (Biotin-[…]-amide) was custom synthesized at EZBiolab, Westfield, Ind. Streptavidin conjugated SureLight-Allophycocyania and LANCE Eu-W1024 labeled anti-phosphotyrosine antibody were from Perkin-Elmer, Boston, Mass. Microplates were from Corning Inc., Acton, Mass. All other reagents were from Sigma, St. Louis, Mo.
Plates were read in Fusion α-FP instrument (Perkin-Elmer). […] Signal=Bottom+(Top−Bottom)/(1+10^((Log(IC50)−Log [I])*Hill Slope) Bottom and Top refer to the post and pre-transition baselines, respectively.

[5] = molecular target: T4, human JAK3 (a.a. 781-1124) (Homo sapiens, UniProt P52333); assay: In vitro JAK kinase assay (HTRF, phosphorylation of a biotinylated peptide), JAK3
T4 construct: JAK3 (a.a. 781-1124); His tag (N); made in house; host or cells: insect cells (baculovirus)
T4 sequence (P52333 781-1124): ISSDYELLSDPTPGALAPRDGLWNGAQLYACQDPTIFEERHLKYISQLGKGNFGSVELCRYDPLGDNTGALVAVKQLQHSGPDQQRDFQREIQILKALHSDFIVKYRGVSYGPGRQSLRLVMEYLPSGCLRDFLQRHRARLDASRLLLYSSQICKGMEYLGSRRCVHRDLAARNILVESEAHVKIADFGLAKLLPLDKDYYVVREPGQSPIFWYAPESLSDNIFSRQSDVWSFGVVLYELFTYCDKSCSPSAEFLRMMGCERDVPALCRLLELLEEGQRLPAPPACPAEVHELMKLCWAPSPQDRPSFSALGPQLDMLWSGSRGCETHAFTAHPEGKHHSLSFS
Outline: as §1

[6] = Table B1, cells without percent sign

SMILES	IC50 [1] [nM]	IC50 ([2]; Table B1) [nM]	IC50 [3] [nM]	ALK % of inhibition at a concentration of 500 nM or 1 mM [4] [%]	IC50 [4, 6] [nM]	IC50 [2] [nM]	IC50 [5] [nM]	IC50 [4] [nM]
CC(C)(C)OC(=O)N1CCC(NC(=O)Nc2ccc3cc2CCc2cccc(c2)Nc2ncc(Cl)c(n2)N3)CC1 [Example B180, tert-Butyl 4-[({[6-chloro-2,4,8,22-tetraazatetracyclo[14.3.1.1(3,7).1(9,13)]docosa-1(20),3(22),4,6,9(21),10,12,16,18-nonaen-12-yl]amino}carbonyl)amino]piperidine-1-carboxylate]	91	97	450	3.5				
CC(=O)NCCNC(=O)Nc1ccc2cc1CCc1cccc(c1)Nc1ncc(Cl)c(n1)N2 [Example B186, N-{2-[({[6-Chloro-2,4,8,22-tetraazatetracyclo[14.3.1.1(3,7).1(9,13)]docosa-1(20),3(22),4,6,9(21),10,12,16,18-nonaen-12-yl]amino}carbonyl)amino]ethyl}acetamide trifluoroacetate]	4	8.2	9.6	21				
Clc1cnc2nc1Nc1cc(cc(CN3CCN(Cc4ccc(Oc5ncccn5)cc4)CC3)c1)CCc1cccc(c1)N2 [Example B193, 6-Chloro-11-({4-[4-(pyrimidin-2-yloxy)benzyl]piperazin-1-yl}methyl)-2,4,8,22-tetraazatetracyclo[14.3.1.1(3,7).1(9,13)]docosa-1(20),3(22),4,6,9(21),10,12,16,18-nonaene tris(trifluoroacetate)]	55	47	950		> 1000			
Cn1ccc(C(=O)Nc2cc3cc(c2)Nc2nc(ncc2Cl)Nc2cccc(c2)CC3)n1 [Example B207, N-[6-Chloro-2,4,8,22-tetraazatetracyclo[14.3.1.1(3,7).1(9,13)]docosa-1(20),3(22),4,6,9(21),10,12,16,18-nonaen-11-yl]-1-methyl-1H-pyrazole-3-carboxamide trifluoroacetate]	176	125	700		> 10000			
Clc1nccc(N2CCN(Cc3cc4cc(c3)Nc3nc(ncc3Cl)Nc3cccc(c3)CC4)CC2)n1 [Example B218, 6-Chloro-11-{[4-(2-chloropyrimidin-4-yl)piperazin-1-yl]methyl}-2,4,8,22-tetraazatetracyclo[14.3.1.1(3,7).1(9,13)]docosa-1(20),3(22),4,6,9(21),10,12,16,18-nonaene tris(trifluoroacetate)]	164	25	900		> 10000			
Cc1oncc1C(=O)N1CC[C@H](NC(=O)Nc2ccc3cc2CCc2cncc(c2)Nc2ncc(Cl)c(n2)N3)C1 [Example B266, N-[6-Chloro-2,4,8,18,22-pentaazatetracyclo[14.3.1.1(3,7).1(9,13)]docosa-1(20),3(22),4,6,9(21),10,12,16,18-nonaen-12-yl]-N′-{(3S)-1-[(5-methylisoxazol-4-yl)carbonyl]pyrrolidin-3-yl}urea bis(trifluoroacetate)]	17	601	25	22				
O=S1(=O)Cc2cccc(c2)Nc2nc(ncc2Cl)Nc2cccc(c2)N1 [Example C8, 6-Chloro-15-thia-2,4,8,16,23-pentaazatetracyclo[15.3.1.1(3,7).1(9,13)]tricosa-1(21),3(23),4,6,9(22),10,12,17,19-nonaene 15,15-dioxide trifluoroacetate]						66	242	> 1000
